Results from patent EP4722207A1, “OXOISOINDOLINYL-SUBSTITUTED TETRAHYDROPYRIMIDINEDIONE DERIVATIVE AND USE THEREOF” (Gluetacs Therapeutics (Shanghai) Co., Ltd., priority 2023, dated 2024).

Legend:
Assay type in all cases: cell-based
Details in all cases: compounds at 50 nM and 500 nM, 24 hours
WEE1 = biological target: T1, WEE1 (Homo sapiens, UniProt P30291+Q96SW2); experiment: Western-blot assay, substrate protein degradation in hPBMCs: WEE1
T1 construct: effects of the compounds of the present disclosure on the expression of target proteins in cells; endogenous in cells; host or cells: human PBMCs (hPBMCs)

IKZF1 = biological target: T2, IKZF1 (Homo sapiens, UniProt Q13422+Q96SW2); experiment: Western-blot assay, substrate protein degradation in hPBMCs: IKZF1
T2 construct: effects of the compounds of the present disclosure on the expression of target proteins in cells; endogenous in cells; host or cells: human PBMCs (hPBMCs)

IKZF3 = biological target: T3, IKZF3 (Homo sapiens, UniProt Q96SW2+Q9UKT9); experiment: Western-blot assay, substrate protein degradation in hPBMCs: IKZF3
T3 construct: effects of the compounds of the present disclosure on the expression of target proteins in cells; endogenous in cells; host or cells: human PBMCs (hPBMCs)

GSPT1 = biological target: T4, GSPT1 (Homo sapiens, UniProt P15170+Q96SW2); experiment: Western-blot assay, substrate protein degradation in hPBMCs: GSPT1
T4 construct: effects of the compounds of the present disclosure on the expression of target proteins in cells; endogenous in cells; host or cells: human PBMCs (hPBMCs)

CK1α = biological target: T5, CK1α (Homo sapiens, UniProt P48729+Q96SW2); experiment: Western-blot assay, substrate protein degradation in hPBMCs: CK1α
T5 construct: effects of the compounds of the present disclosure on the expression of target proteins in cells; endogenous in cells; host or cells: human PBMCs (hPBMCs)

IKZF2 = biological target: T6, IKZF2 (Homo sapiens, UniProt Q96SW2+Q9UKS7); experiment: Western-blot assay, substrate protein degradation in hPBMCs: IKZF2
T6 construct: effects of the compounds of the present disclosure on the expression of target proteins in cells; endogenous in cells; host or cells: human PBMCs (hPBMCs)
T6 sequence (Q9UKS7 whole entry): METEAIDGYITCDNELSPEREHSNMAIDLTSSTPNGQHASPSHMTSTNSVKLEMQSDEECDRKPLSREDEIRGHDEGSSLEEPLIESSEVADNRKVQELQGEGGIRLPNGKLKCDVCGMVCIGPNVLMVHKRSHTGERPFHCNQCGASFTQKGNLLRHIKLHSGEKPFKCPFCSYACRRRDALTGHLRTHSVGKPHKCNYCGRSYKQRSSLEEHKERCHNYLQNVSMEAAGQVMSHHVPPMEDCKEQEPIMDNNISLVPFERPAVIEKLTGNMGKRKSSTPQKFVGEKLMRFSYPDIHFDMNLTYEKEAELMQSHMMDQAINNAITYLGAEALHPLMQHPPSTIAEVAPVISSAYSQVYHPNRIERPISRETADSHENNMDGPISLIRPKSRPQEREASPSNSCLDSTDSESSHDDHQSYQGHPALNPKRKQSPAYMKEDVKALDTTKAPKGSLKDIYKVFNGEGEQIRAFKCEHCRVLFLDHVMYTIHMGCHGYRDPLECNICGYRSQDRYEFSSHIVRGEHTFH
T6 sequence (Q96SW2 whole entry): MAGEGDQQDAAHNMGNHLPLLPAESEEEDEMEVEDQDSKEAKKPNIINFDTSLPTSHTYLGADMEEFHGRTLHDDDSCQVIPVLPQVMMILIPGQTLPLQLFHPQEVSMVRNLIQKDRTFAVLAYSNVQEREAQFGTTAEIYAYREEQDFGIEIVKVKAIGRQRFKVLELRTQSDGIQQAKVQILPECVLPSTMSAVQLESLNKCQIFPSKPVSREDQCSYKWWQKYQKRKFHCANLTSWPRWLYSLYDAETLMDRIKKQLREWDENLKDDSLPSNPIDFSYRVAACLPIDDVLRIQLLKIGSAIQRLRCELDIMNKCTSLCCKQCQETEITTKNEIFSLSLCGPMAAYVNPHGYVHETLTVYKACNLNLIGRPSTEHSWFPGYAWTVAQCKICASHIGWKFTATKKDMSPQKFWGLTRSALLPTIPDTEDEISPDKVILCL
T6 sequence (Q16531 whole entry partner): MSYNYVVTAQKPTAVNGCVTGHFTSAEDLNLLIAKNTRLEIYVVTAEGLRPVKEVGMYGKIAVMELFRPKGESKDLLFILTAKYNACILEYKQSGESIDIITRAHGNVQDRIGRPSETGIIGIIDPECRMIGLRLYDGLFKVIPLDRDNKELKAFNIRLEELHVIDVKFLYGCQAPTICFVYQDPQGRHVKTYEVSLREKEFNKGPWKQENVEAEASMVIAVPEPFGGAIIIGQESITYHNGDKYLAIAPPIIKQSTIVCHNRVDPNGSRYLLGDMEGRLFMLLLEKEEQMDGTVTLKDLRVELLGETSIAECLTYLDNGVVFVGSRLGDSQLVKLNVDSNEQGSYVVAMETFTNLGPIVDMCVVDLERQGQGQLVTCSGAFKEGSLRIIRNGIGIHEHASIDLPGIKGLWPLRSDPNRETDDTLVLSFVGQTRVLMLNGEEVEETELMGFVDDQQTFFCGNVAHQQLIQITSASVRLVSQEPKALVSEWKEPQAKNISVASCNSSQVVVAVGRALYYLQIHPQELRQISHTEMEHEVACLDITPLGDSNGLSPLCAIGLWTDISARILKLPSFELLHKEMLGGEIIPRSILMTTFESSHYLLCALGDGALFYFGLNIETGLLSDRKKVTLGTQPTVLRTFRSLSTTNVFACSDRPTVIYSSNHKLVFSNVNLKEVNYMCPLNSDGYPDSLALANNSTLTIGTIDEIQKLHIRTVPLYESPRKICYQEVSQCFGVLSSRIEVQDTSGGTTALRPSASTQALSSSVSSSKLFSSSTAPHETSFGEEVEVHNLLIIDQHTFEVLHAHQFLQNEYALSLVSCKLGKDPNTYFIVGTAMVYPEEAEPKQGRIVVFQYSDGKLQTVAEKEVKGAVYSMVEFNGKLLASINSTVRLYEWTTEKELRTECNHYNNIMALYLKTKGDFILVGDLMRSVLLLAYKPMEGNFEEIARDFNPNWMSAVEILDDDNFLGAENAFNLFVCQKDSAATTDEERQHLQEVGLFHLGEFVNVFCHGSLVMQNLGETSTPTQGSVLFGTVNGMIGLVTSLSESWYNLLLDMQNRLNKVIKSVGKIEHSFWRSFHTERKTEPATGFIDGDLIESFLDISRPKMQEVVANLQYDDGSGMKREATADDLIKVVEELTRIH

T5 sequence (P48729 whole entry): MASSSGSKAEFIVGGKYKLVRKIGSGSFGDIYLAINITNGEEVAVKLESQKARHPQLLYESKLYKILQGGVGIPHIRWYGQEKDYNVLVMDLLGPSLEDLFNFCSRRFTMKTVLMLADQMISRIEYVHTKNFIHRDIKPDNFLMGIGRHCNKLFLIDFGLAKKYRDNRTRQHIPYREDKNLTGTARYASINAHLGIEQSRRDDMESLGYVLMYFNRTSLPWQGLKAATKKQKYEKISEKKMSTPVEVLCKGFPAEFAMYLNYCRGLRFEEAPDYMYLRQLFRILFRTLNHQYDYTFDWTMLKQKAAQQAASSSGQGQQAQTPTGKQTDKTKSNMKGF
T5 sequence (Q96SW2 whole entry): as the sequence (Q96SW2 whole entry) above
T5 sequence (Q16531 whole entry partner): as the sequence (Q16531 whole entry partner) above
T4 sequence (P15170 whole entry): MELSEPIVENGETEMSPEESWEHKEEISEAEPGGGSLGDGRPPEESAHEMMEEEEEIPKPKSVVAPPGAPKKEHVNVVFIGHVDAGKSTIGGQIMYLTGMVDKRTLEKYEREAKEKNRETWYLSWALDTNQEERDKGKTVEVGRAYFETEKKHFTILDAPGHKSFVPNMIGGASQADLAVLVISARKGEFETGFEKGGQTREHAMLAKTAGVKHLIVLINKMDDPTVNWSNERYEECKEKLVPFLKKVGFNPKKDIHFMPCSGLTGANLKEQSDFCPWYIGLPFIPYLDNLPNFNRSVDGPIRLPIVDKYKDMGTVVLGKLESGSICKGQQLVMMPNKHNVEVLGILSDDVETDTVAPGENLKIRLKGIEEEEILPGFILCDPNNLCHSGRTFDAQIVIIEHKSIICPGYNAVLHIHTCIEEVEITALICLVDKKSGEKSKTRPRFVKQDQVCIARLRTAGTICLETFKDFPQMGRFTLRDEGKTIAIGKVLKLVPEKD
T4 sequence (Q96SW2 whole entry): as the sequence (Q96SW2 whole entry) above
T4 sequence (Q16531 whole entry partner): as the sequence (Q16531 whole entry partner) above
T2 sequence (Q13422 whole entry): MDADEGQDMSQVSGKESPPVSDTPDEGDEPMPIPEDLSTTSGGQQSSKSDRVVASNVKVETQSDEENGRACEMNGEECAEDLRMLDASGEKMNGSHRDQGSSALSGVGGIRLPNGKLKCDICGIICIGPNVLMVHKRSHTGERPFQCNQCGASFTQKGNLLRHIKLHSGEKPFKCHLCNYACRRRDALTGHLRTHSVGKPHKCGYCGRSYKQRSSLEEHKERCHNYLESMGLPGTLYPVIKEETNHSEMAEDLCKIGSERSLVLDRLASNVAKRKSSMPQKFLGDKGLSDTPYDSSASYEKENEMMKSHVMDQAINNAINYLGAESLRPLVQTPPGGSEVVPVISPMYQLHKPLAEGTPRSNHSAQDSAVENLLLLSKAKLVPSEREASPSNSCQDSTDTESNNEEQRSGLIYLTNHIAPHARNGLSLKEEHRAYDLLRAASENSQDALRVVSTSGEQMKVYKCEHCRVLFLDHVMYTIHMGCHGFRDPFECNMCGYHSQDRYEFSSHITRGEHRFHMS
T2 sequence (Q96SW2 whole entry): as the sequence (Q96SW2 whole entry) above
T2 sequence (Q16531 whole entry partner): as the sequence (Q16531 whole entry partner) above
T3 sequence (Q9UKT9 whole entry): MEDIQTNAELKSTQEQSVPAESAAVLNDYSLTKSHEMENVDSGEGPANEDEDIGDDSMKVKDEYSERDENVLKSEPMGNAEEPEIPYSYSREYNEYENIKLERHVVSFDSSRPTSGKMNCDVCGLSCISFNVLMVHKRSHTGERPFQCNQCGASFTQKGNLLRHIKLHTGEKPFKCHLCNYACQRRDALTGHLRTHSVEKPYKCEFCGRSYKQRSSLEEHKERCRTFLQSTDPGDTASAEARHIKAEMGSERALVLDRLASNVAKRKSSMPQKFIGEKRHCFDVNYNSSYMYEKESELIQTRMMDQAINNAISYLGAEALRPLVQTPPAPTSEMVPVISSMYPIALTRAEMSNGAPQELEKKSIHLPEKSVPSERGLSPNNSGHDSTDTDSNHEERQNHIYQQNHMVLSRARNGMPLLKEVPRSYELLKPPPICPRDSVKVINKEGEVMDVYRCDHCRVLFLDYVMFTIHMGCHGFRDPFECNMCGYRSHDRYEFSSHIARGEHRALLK
T3 sequence (Q96SW2 whole entry): as the sequence (Q96SW2 whole entry) above
T3 sequence (Q16531 whole entry partner): as the sequence (Q16531 whole entry partner) above

SMILES | WEE1 substrate protein remaining % (WEE1) | IKZF1 substrate protein remaining % (IKZF1) | IKZF3 substrate protein remaining % (IKZF3) | GSPT1 substrate protein remaining % (GSPT1) | CK1α substrate protein remaining % (CK1α) | IKZF2 substrate protein remaining % (IKZF2)
O=C1CCN(N2Cc3cc(CN4CCN(c5cc(Cl)nnc5Cl)CC4)ccc3C2=O)C(=O)N1 [GT-07030, 1-(5-((4-(3,6-dichloropyridazin-4-yl)piperazin-1-yl)methyl)-1-oxoisoindolin-2-yl)dihydropyrimidine-2,4(1H,3H)-dione] | B ("B" is defined as 80%< substrate protein remaining %≤ 100%) | B ("B" is defined as 80%< substrate protein remaining %≤ 100%) | B ("B" is defined as 80%< substrate protein remaining %≤ 100%) | B ("B" is defined as 80%< substrate protein remaining %≤ 100%) | B ("B" is defined as 80%< substrate protein remaining %≤ 100%) | A ("A" is defined as 0% ≤ substrate protein remaining % ≤ 80%)
O=C1CCN(N2Cc3cc(CN4CCN(c5ncncn5)CC4)ccc3C2=O)C(=O)N1 [GT-07031, 1-(5-((4-(1,3,5-triazin-2-yl)piperazin-1-yl)methyl)-1-oxoisoindolin-2-yl)dihydropyrimidine-2,4(1H,3H)-dione] | B ("B" is defined as 80%< substrate protein remaining %≤ 100%) | A ("A" is defined as 0% ≤ substrate protein remaining % ≤ 80%) | A ("A" is defined as 0% ≤ substrate protein remaining % ≤ 80%) | A ("A" is defined as 0% ≤ substrate protein remaining % ≤ 80%) | A ("A" is defined as 0% ≤ substrate protein remaining % ≤ 80%) | B ("B" is defined as 80%< substrate protein remaining %≤ 100%)
O=C1CCN(N2Cc3cc(CN4CCN(c5c(Cl)cncc5Cl)CC4)ccc3C2=O)C(=O)N1 [GT-07032, 1-(5-((4-(3,5-dichloropyridin-4-yl)piperazin-1-yl)methyl)-1-oxoisoindolin-2-yl)dihydropyrimidine-2,4(1H,3H)-dione] | B ("B" is defined as 80%< substrate protein remaining %≤ 100%) | B ("B" is defined as 80%< substrate protein remaining %≤ 100%) | B ("B" is defined as 80%< substrate protein remaining %≤ 100%) | A ("A" is defined as 0% ≤ substrate protein remaining % ≤ 80%) | B ("B" is defined as 80%< substrate protein remaining %≤ 100%) | B ("B" is defined as 80%< substrate protein remaining %≤ 100%)
Cc1cc(N2CCN(Cc3ccc4c(c3)CN(N3CCC(=O)NC3=O)C4=O)CC2)cc(C)n1 [GT-07033, 1-(5-((4-(2,6-dimethylpyridin-4-yl)piperazin-1-yl)methyl)-1-oxoisoindolin-2-yl)dihydropyrimidine-2,4(1H,3H)-dione] | B ("B" is defined as 80%< substrate protein remaining %≤ 100%) | B ("B" is defined as 80%< substrate protein remaining %≤ 100%) | B ("B" is defined as 80%< substrate protein remaining %≤ 100%) | A ("A" is defined as 0% ≤ substrate protein remaining % ≤ 80%) | B ("B" is defined as 80%< substrate protein remaining %≤ 100%) | B ("B" is defined as 80%< substrate protein remaining %≤ 100%)
O=C1CCN(N2C(=O)c3ccc(CN4CCN(c5ncnc(Cl)c5Cl)CC4)cc3C2=O)C(=O)N1 [GT-07034, 5-((4-(5,6-dichloropyrimidin-4-yl)piperazin-1-yl)methyl)-2-(2,4-dioxotetrahydropyrimidin-1(2H)-yl)isoindoline-1,3-dione] | A ("A" is defined as 0% ≤ substrate protein remaining % ≤ 80%) | A ("A" is defined as 0% ≤ substrate protein remaining % ≤ 80%) | A ("A" is defined as 0% ≤ substrate protein remaining % ≤ 80%) | A ("A" is defined as 0% ≤ substrate protein remaining % ≤ 80%) | A ("A" is defined as 0% ≤ substrate protein remaining % ≤ 80%) | A ("A" is defined as 0% ≤ substrate protein remaining % ≤ 80%)
O=C1CCN(N2C(=O)c3ccc(CN4CCN(c5cnnc(Cl)c5Cl)CC4)cc3C2=O)C(=O)N1 [GT-07035, 5-((4-(5,6-dichloropyridazin-4-yl)piperazin-1-yl)methyl)-2-(2,4-dioxotetrahydropyrimidin-1(2H)-yl)isoindoline-1,3-dione] | B ("B" is defined as 80%< substrate protein remaining %≤ 100%) | B ("B" is defined as 80%< substrate protein remaining %≤ 100%) | A ("A" is defined as 0% ≤ substrate protein remaining % ≤ 80%) | A ("A" is defined as 0% ≤ substrate protein remaining % ≤ 80%) | A ("A" is defined as 0% ≤ substrate protein remaining % ≤ 80%) | B ("B" is defined as 80%< substrate protein remaining %≤ 100%)
O=C1CCN(N2C(=O)c3ccc(CN4CCN(c5cc(Cl)nnc5Cl)CC4)cc3C2=O)C(=O)N1 [GT-07036, 5-((4-(3,6-dichloropyridazin-4-yl)piperazin-1-yl)methyl)-2-(2,4-dioxotetrahydropyrimidin-1(2H)-yl)isoindoline-1,3-dione] | B ("B" is defined as 80%< substrate protein remaining %≤ 100%) | B ("B" is defined as 80%< substrate protein remaining %≤ 100%) | B ("B" is defined as 80%< substrate protein remaining %≤ 100%) | A ("A" is defined as 0% ≤ substrate protein remaining % ≤ 80%) | B ("B" is defined as 80%< substrate protein remaining %≤ 100%) | B ("B" is defined as 80%< substrate protein remaining %≤ 100%)
O=C1CCN(N2C(=O)c3ccc(CN4CCN(c5ncncn5)CC4)cc3C2=O)C(=O)N1 [GT-07037, 5-((4-(1,3,5-triazin-2-yl)piperazin-1-yl)methyl)-2-(2,4-dioxotetrahydropyrimidin-1(2H)-yl)isoindoline-1,3-dione] | B ("B" is defined as 80%< substrate protein remaining %≤ 100%) | B ("B" is defined as 80%< substrate protein remaining %≤ 100%) | B ("B" is defined as 80%< substrate protein remaining %≤ 100%) | A ("A" is defined as 0% ≤ substrate protein remaining % ≤ 80%) | B ("B" is defined as 80%< substrate protein remaining %≤ 100%) | B ("B" is defined as 80%< substrate protein remaining %≤ 100%)
O=C1CCN(N2C(=O)c3ccc(CN4CCN(c5c(Cl)cncc5Cl)CC4)cc3C2=O)C(=O)N1 [GT-07038, 5-((4-(3,5-dichloropyridin-4-yl)piperazin-1-yl)methyl)-2-(2,4-dioxotetrahydropyrimidin-1(2H)-yl)isoindoline-1,3-dione] | A ("A" is defined as 0% ≤ substrate protein remaining % ≤ 80%) | A ("A" is defined as 0% ≤ substrate protein remaining % ≤ 80%) | A ("A" is defined as 0% ≤ substrate protein remaining % ≤ 80%) | A ("A" is defined as 0% ≤ substrate protein remaining % ≤ 80%) | A ("A" is defined as 0% ≤ substrate protein remaining % ≤ 80%) | A ("A" is defined as 0% ≤ substrate protein remaining % ≤ 80%)
O=C1CCN(N2Cc3cc(CN4CCN(c5ccnc(Cl)c5F)CC4)ccc3C2=O)C(=O)N1 [GT-07069, 1-(5-((4-(2-chloro-3-fluoropyridin-4-yl)piperazin-1-yl)methyl)-1-oxoisoindolin-2-yl)dihydropyrimidine-2,4(1H,3H)-dione] | A ("A" is defined as 0% ≤ substrate protein remaining % ≤ 80%) | B ("B" is defined as 80%< substrate protein remaining %≤ 100%) | B ("B" is defined as 80%< substrate protein remaining %≤ 100%) | B ("B" is defined as 80%< substrate protein remaining %≤ 100%) | B ("B" is defined as 80%< substrate protein remaining %≤ 100%) | B ("B" is defined as 80%< substrate protein remaining %≤ 100%)
